Reference: PubChem BioAssay (NCI)
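Protocol summary: plate cells (96-well), add compound at 5 concentrations, incubate 48 h, interpolate endpoints linearly. The concentration for 50% growth inhibition is given as GI50. Definition used: TGI = concentration required for complete inhibition of growth.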

Tests used:
Experiment in all cases: inhibition of tumour cell growth, NCI panel, 48 h
UACC-62 melanoma = test system: UACC-62 melanoma
OVCAR-8 ovarian = test system: OVCAR-8 ovarian
MOLT-4 leukemia = test system: MOLT-4 leukemia
HT29 colon = test system: HT29 colon
HCT-116 colon = test system: HCT-116 colon
UO-31 renal = test system: UO-31 renal
NCI/ADR-RES ovarian = test system: NCI/ADR-RES ovarian
A549 NSCLC = test system: A549 NSCLC
LOX IMVI melanoma = test system: LOX IMVI melanoma
RXF 393 renal = test system: RXF 393 renal

Row | Compound | GI50 (UACC-62 melanoma) | TGI (UACC-62 melanoma) | GI50 (OVCAR-8 ovarian) | TGI (OVCAR-8 ovarian) | GI50 (MOLT-4 leukemia) | TGI (MOLT-4 leukemia) | GI50 (HT29 colon) | TGI (HT29 colon) | GI50 (HCT-116 colon) | TGI (HCT-116 colon) | GI50 (UO-31 renal) | TGI (UO-31 renal) | GI50 (NCI/ADR-RES ovarian) | TGI (NCI/ADR-RES ovarian) | GI50 (A549 NSCLC) | TGI (A549 NSCLC) | GI50 (LOX IMVI melanoma) | TGI (LOX IMVI melanoma) | GI50 (RXF 393 renal) | TGI (RXF 393 renal)
1 | COc1ccc2c(c1)C=C1CSCC3=Cc4cc(OC)ccc4OC13O2 | 783 nM | > 100 µM | 522 nM | > 100 µM | 0.486 µM | > 100 µM | 0.34 µM | > 100 µM | 0.471 µM | > 100 µM | 0.642 µM | > 100 µM | 0.308 µM | > 100 µM | 492 nM | > 100 µM | 0.656 µM | > 100 µM | 0.216 µM | 0.645 µM
2 | CCc1c2c(nc3ccc(OCc4ccc(B5OC(C)(C)C(C)(C)O5)cc4)cc13)-c1cc3c(c(=O)n1C2)COC(=O)[C@]3(O)CC | < 10 nM | 0.186 µM | 29.6 nM | > 100 µM | < 0.01 µM | > 100 µM | 0.115 µM | > 100 µM | 0.0169 µM | > 100 µM | 0.0326 µM | 1.02 µM | 0.0622 µM | > 100 µM | 60 nM | > 100 µM | < 0.01 µM | 0.355 µM | 0.027 µM | 0.185 µM
3 | Oc1ccc(O)c2c1C1(Cl)C(Cl)=C(Cl)C2(Cl)C1(Cl)Cl | 4960 nM | 19.5 µM | 10300 nM | 36.6 µM | 2.87 µM | 19 µM | 6.44 µM | 17.9 µM | 3.07 µM | 12.8 µM | 2.43 µM | 10.6 µM | 3.03 µM | 9.53 µM | 5890 nM | 37.4 µM | 3.18 µM | 13.4 µM | 3.31 µM | 11.2 µM
4 | CCC(=O)c1c(C(F)(F)F)n([O-])c2ccccc2[n+]1=O | 1650 nM | 4.64 µM | 1770 nM | > 32 µM | 0.577 µM | > 100 µM | 1.41 µM | 11 µM | 1.56 µM | 8.83 µM | 0.829 µM | > 20.2 µM | 1.36 µM | 13.3 µM | 2300 nM | 11.4 µM | 1.39 µM | 3.38 µM | 1.67 µM | 10.2 µM
5 | O=CN1N=C(c2ccc(Nc3ccnc4cc(Cl)ccc34)cc2)CC1c1ccc(Cl)cc1 (stereo not given) | 567 nM | > 100 µM | 3220 nM | > 100 µM | 0.529 µM | > 100 µM | 0.407 µM | 8.5 µM | 0.499 µM | > 100 µM | 1.3 µM | > 100 µM | 0.359 µM | > 100 µM | 992 nM | > 100 µM | 0.599 µM | > 100 µM | 1.88 µM | > 100 µM
6 | C=C1C(=O)O[C@H]2[C@H]1CC/C(CNC(=O)/C=C/c1ccc(Cl)cc1Cl)=C\CC[C@@]1(C)O[C@@H]21 | 1330 nM | 2.9 µM | 1370 nM | 3.44 µM | 0.275 µM | 1.58 µM | 0.841 µM | 2.49 µM | 0.647 µM | 2 µM | 1.03 µM | 2.28 µM | 2.57 µM | 12.8 µM | 2120 nM | 5.46 µM | 0.516 µM | 1.81 µM | 0.403 µM | 1.63 µM
7 | CC(C)=CCc1cc(C2COc3cc4c(c(O)c3C2=O)C=CC(C)(C)O4)c(O)cc1O (stereo not given) |  | 32.9 µM |  | 51.2 µM |  | 20.7 µM |  | 31.6 µM |  | 54.5 µM |  | 26 µM |  | 79.4 µM |  | 27.9 µM |  | 43.4 µM |  | 20.6 µM
8 | O=C(Cn1c2ccccc2c2ccncc21)N/N=C\c1ccc2ccccc2c1 | 18000 nM | 42.9 µM | 27800 nM | > 100 µM | 16.7 µM | > 100 µM | 21.7 µM | 50.3 µM | 3.51 µM | 15 µM | 13.3 µM | 45.6 µM | 15.8 µM | > 100 µM | 20900 nM | 57.1 µM | 28.6 µM | > 100 µM | 19 µM | 54.4 µM
9 | COc1ccc(CN=C(N)N=C(N)N)cc1OC | 558000 nM | > 1000 µM | 444000 nM | > 1000 µM | > 1000 µM | > 1000 µM | > 1000 µM | > 1000 µM | > 1000 µM | > 1000 µM | > 1000 µM | > 1000 µM | > 1000 µM | > 1000 µM | 404000 nM | > 1000 µM | > 1000 µM | > 1000 µM | > 1000 µM | > 1000 µM
